One may read the DC50 as the midpoint of the concentration-degradation curve.

SMILES strings stand for the structures. Active and inactive are the calls of the source. No cut-off for these calls is given here.

Among the data in ChEMBL document CHEMBL5543147, “Discovery and Characterization of a Novel Cereblon-Recruiting PRC1 Bridged PROTAC Degrader” (J Med Chem, 2024) are Activity and DC50 values, retold here.

The target of test [1] is T1, von Hippel-Lindau disease tumor suppressor/Polycomb complex protein BMI-1 (Homo sapiens) (UniProt P40337+P35226). The test can be described thus: PROTAC activity at […] in human PC-3M cells assessed as degradation of BMI1 protein expression at 0.2 to 5 uM incubated for 24 hrs by Western blotting analysis. Format: cell-based. The conditions noted are these: dose 0.2-5 µM. In general terms: Immunoblotting shows a protein as a band on a membrane.
T1 sequence (P35226 whole entry, looked up): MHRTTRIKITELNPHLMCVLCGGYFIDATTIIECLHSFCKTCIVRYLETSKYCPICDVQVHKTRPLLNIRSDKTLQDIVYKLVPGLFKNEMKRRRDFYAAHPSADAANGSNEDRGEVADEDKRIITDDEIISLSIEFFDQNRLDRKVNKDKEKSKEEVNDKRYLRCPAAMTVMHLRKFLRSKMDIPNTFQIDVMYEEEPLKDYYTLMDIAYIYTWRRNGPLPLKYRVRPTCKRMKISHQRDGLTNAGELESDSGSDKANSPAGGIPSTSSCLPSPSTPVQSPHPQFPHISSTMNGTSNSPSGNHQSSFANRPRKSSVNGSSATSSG
T1 sequence (P40337 whole entry, looked up): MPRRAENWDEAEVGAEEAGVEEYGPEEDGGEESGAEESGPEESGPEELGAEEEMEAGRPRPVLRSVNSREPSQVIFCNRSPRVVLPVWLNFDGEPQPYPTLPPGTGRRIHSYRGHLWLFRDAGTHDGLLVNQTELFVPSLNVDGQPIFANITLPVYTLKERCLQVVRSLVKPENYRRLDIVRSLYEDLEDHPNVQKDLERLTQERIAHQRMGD

In test [2] the target is T2, Protein cereblon/Polycomb protein SUZ12 (Homo sapiens) (UniProt Q15022+Q96SW2). The test can be described thus: PROTAC activity at CRBN/SUZ12 in human PC-3M cells assessed as degradation of SUZ12 protein expression at 0.2 to 5 uM incubated for 24 hrs by Western blotting analysis. The format is cell-based. The conditions noted are these: dose 0.2-5 µM.
T2 sequence (Q15022 whole entry, looked up): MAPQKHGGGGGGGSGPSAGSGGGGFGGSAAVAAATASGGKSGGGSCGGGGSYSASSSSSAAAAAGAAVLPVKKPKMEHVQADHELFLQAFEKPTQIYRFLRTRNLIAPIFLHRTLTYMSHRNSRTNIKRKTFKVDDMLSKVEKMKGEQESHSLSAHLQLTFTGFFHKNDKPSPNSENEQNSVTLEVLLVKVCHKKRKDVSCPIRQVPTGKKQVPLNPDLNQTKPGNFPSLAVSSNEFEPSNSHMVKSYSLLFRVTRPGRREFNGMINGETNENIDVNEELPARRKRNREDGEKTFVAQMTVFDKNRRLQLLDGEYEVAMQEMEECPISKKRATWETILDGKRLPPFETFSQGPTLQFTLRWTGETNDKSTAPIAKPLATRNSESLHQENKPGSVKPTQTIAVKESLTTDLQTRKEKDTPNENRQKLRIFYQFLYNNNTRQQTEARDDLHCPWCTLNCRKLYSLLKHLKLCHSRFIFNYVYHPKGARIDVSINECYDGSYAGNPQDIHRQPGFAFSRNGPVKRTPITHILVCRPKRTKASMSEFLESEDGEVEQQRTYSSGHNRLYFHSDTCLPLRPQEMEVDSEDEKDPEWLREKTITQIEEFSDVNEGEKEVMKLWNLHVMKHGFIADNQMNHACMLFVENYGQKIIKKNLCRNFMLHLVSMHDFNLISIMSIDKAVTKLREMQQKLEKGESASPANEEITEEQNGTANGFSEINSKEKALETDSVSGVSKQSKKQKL
T2 sequence (Q96SW2 whole entry, looked up): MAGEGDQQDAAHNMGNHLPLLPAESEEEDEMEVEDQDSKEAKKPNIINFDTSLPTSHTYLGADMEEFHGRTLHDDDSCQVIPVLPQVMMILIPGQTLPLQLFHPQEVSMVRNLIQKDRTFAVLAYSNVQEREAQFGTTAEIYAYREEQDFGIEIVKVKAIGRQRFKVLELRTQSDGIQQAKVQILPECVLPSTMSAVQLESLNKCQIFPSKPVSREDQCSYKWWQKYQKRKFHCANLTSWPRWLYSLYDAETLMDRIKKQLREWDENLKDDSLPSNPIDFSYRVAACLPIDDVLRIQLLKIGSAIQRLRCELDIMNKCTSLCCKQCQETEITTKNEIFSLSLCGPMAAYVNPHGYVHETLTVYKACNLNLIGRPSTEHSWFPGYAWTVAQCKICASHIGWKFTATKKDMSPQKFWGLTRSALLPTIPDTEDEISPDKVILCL
In test [3] the test system is MDA-MB-468. The test can be described thus: Induction of PRC1 degradation in human MDA-MB-468 cells assessed as reduction of H2AK119ub chromatin mark at 0.2 to 5 uM incubated for 24 hrs by Western blotting analysis. The format is cell-based. The conditions noted are these: dose 0.2-5 µM.
Test [4] has as its target von Hippel-Lindau disease tumor suppressor/Polycomb protein EED (Homo sapiens, UniProt O75530+P40337). The test can be described thus: PROTAC activity at VHL/EED in human KARPAS-422 cells assessed as degradation of EED protein expression by Western blotting analysis. Format: cell-based.
In test [5] the target is T2, Protein cereblon/Polycomb protein SUZ12 (Homo sapiens). As to the kind of experiment: PROTAC activity at CRBN/SUZ12 in human MDA-MB-468 cells assessed as degradation of SUZ12 protein expression at 0.2 to 5 uM incubated for 24 hrs by Western blotting analysis. The format is cell-based. The conditions noted are these: dose 0.2-5 µM.
The target in test [6] is T3, Protein cereblon/Polycomb protein EED (Homo sapiens, UniProt O75530+Q96SW2). The test can be described thus: PROTAC activity at CRBN/EED in human PC-3M cells assessed as degradation of EED protein expression at 0.2 to 5 uM incubated for 24 hrs by Western blotting analysis. The format is cell-based. The settings on record: dose 0.2-5 µM.
T3 sequence (O75530 2-441 limits assumed): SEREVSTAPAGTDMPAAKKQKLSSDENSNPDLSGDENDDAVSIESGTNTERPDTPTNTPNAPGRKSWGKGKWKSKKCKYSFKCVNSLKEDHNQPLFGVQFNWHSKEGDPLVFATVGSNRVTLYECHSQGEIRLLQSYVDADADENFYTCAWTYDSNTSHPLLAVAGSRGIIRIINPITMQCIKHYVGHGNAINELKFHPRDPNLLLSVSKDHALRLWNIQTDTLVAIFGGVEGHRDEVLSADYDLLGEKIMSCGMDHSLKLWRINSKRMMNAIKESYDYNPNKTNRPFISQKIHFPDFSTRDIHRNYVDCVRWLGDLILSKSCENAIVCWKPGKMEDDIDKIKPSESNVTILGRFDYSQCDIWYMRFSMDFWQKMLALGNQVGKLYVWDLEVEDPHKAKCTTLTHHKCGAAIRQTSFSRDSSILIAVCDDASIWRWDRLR
T3 sequence (Q96SW2 whole entry partner): as the sequence (Q96SW2 whole entry, looked up) above
The target of test [7] is von Hippel-Lindau disease tumor suppressor/Histone-lysine N-methyltransferase EZH2 (Homo sapiens, UniProt Q15910+P40337). As to the kind of experiment: PROTAC activity at VHL/EZH2 in human KARPAS-422 cells assessed as degradation of EZH2 protein expression by Western blotting analysis. Format: cell-based.
von Hippel-Lindau disease tumor suppressor/Histone-lysine N-methyltransferase EZH2, sequence (Q15910 whole entry): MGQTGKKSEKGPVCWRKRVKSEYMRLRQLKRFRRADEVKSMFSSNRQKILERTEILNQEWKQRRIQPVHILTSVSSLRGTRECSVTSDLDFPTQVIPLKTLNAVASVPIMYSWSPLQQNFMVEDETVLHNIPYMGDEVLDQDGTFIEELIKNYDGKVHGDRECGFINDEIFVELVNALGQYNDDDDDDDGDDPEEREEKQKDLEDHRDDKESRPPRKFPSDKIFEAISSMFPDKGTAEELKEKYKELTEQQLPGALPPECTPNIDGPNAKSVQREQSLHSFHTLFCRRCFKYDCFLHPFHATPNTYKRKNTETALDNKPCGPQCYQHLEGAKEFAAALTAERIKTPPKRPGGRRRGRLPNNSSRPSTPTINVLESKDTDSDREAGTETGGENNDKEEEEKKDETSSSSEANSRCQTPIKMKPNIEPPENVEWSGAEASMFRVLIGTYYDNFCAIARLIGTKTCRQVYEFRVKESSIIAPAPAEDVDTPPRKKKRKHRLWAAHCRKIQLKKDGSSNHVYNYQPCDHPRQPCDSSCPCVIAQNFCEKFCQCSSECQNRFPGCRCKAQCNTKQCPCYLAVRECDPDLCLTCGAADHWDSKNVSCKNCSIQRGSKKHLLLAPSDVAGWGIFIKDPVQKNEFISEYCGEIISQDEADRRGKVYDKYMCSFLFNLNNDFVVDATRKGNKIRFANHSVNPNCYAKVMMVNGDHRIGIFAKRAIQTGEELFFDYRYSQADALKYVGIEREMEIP
von Hippel-Lindau disease tumor suppressor/Histone-lysine N-methyltransferase EZH2, sequence (P40337 whole entry): as the sequence (P40337 whole entry, looked up) above
The test system of test [8] is K562. The test can be described thus: Antiproliferative activity against human K562 cells assessed as increase in HoxA mRNA expression at 10 uM incubated for 24 hrs by RT-qPCR analysis. Format: functional, cell-based. A general note: Real-time PCR tracks product formation cycle by cycle.
For test [9], the target named is T4, Protein cereblon/E3 ubiquitin-protein ligase RING2 (Homo sapiens, UniProt Q96SW2+Q99496). The test can be described thus: PROTAC activity at CRBN/RING1B in human MDA-MB-468 cells assessed as degradation of RING1B protein expression at 0.2 to 5 uM incubated for 24 hrs by Western blotting analysis. The format is cell-based. The conditions noted are these: dose 0.2-5 µM.
T4 sequence (Q96SW2 whole entry): as the sequence (Q96SW2 whole entry, looked up) above
T4 sequence (Q99496 2-336 partner limits assumed): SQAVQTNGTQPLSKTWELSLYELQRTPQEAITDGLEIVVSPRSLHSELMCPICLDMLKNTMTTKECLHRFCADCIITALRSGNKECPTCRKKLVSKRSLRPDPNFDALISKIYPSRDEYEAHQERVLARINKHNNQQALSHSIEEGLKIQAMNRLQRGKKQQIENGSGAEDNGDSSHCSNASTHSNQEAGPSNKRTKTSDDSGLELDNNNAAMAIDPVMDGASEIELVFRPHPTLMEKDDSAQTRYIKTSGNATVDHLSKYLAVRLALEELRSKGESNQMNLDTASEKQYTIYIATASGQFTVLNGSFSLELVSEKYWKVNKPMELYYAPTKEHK

The target of test [10] is T1, von Hippel-Lindau disease tumor suppressor/Polycomb complex protein BMI-1 (Homo sapiens). The test can be described thus: PROTAC activity at […] in human MDA-MB-468 cells assessed as degradation of BMI1 protein expression at 0.2 to 5 uM incubated for 24 hrs by Western blotting analysis. The settings on record: dose 0.2-5 µM. Format: cell-based.
Test [11] has as its system MDA-MB-468. The test can be described thus: Induction of PRC2 degradation in human MDA-MB-468 cells assessed as reduction of H3K27me3 chromatin mark at 0.2 to 5 uM incubated for 24 hrs by Western blotting analysis. The conditions noted are these: dose 0.2-5 µM. The format is cell-based.
Test [12] addresses T4, Protein cereblon/E3 ubiquitin-protein ligase RING2. As to the kind of experiment: PROTAC activity at CRBN/RING1B in human PC-3M cells assessed as degradation of RING1B protein expression at 0.2 to 5 uM incubated for 24 hrs by Western blotting analysis. The format is cell-based. The settings on record: dose 0.2-5 µM.
The subject of test [13] is K562. The test can be described thus: Antiproliferative activity against human K562 cells assessed as increase in HoxD mRNA expression at 10 uM incubated for 24 hrs by RT-qPCR analysis. Format: functional, cell-based.
Test [14] has as its target T3, Protein cereblon/Polycomb protein EED. The test can be described thus: PROTAC activity at CRBN/EED in human MDA-MB-468 cells assessed as degradation of EED protein expression at 0.2 to 5 uM incubated for 24 hrs by Western blotting analysis. Format: cell-based. The conditions noted are these: dose 0.2-5 µM.
Test [15] deals with T4, Protein cereblon/E3 ubiquitin-protein ligase RING2. The test can be described thus: PROTAC activity at CRBN/RING1B in human K562 cells assessed as degradation of RING1B protein expression at 1 to 10 uM incubated for 24 hrs by Western blotting analysis. The format is cell-based. The conditions noted are these: dose 1-10 µM.
For test [16], the system named is PC-3M. The test can be described thus: Induction of PRC1 degradation in human PC-3M cells assessed as reduction of H2AK119ub chromatin mark at 0.2 to 5 uM incubated for 24 hrs by Western blotting analysis. The format is cell-based. The conditions noted are these: dose 0.2-5 µM.
Test [17] addresses T5, Protein cereblon/Histone-lysine N-methyltransferase EZH2 (Homo sapiens) (UniProt Q15910+Q96SW2). The test can be described thus: PROTAC activity at CRBN/EZH2 in human MDA-MB-468 cells assessed as degradation of EZH2 protein expression at 0.2 to 5 uM incubated for 24 hrs by Western blotting analysis. Format: cell-based. The settings on record: dose 0.2-5 µM.
Test [18] deals with T1, von Hippel-Lindau disease tumor suppressor/Polycomb complex protein BMI-1 (Homo sapiens). The test can be described thus: PROTAC activity at […] in human K562 cells assessed as degradation of BMI1 protein expression at 1 to 10 uM incubated for 24 hrs by Western blotting analysis. Format: cell-based. The conditions noted are these: dose 1-10 µM.
Test [19] deals with T5, Protein cereblon/Histone-lysine N-methyltransferase EZH2 (Homo sapiens). As to the kind of experiment: PROTAC activity at CRBN/EZH2 in human PC-3M cells assessed as degradation of EZH2 protein expression at 0.2 to 5 uM incubated for 24 hrs by Western blotting analysis. The settings on record: dose 0.2-5 µM. Format: cell-based.
Test [20] has as its system K562. As to the kind of experiment: Induction of PRC2 degradation in human K562 cells assessed as reduction of H3K27me3 chromatin mark at 1 to 10 uM incubated for 24 hrs by Western blotting analysis. The format is cell-based. The settings on record: dose 1-10 µM.
Test [21] relates to K562. As to the kind of experiment: Antiproliferative activity against human K562 cells assessed as cell growth inhibition incubated for 7 days by WST-8 assay. Format: functional. The settings on record: time 7.0 day.
Test [22] has as its system PC-3M. The test can be described thus: Induction of PRC2 degradation in human PC-3M cells assessed as reduction of H3K27me3 chromatin mark at 0.2 to 5 uM incubated for 24 hrs by Western blotting analysis. Format: cell-based. The conditions noted are these: dose 0.2-5 µM.

T5 sequence (Q15910 whole entry, looked up): as the sequence (Q15910 whole entry) above
T5 sequence (Q96SW2 whole entry, looked up): as the sequence (Q96SW2 whole entry, looked up) above
von Hippel-Lindau disease tumor suppressor/Polycomb protein EED, sequence (O75530 whole entry): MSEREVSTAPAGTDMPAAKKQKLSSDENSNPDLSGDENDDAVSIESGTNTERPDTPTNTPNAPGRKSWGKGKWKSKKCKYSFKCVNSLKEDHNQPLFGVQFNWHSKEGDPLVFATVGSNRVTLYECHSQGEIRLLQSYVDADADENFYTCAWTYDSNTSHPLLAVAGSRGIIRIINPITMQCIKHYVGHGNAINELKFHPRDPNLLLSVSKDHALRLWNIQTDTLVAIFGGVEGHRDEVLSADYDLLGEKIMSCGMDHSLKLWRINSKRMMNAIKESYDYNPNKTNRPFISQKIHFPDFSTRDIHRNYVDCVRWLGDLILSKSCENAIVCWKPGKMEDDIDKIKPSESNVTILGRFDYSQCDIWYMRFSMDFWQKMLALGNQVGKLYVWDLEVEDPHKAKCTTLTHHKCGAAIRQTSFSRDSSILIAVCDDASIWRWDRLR
von Hippel-Lindau disease tumor suppressor/Polycomb protein EED, sequence (P40337 whole entry): as the sequence (P40337 whole entry, looked up) above

`Cc1nc(CCC(=O)NCCOc2ccc(OCC(=O)N[C@H](C(=O)N3C[C@H](O)C[C@H]3C(=O)NCc3ccc(-c4scnc4C)cc3)C(C)(C)C)cc2)ccc1-c1cnc(NCc2c(F)ccc3c2CCO3)n2cnnc12`: the outcome (in test [1]; in the test on MDA-MB-468 [3]; with K562 [8]; in test [9]; in test [10]; in test [12]) was inactive. The outcome (in the test on K562 [13]; in test [15]; in the test with PC-3M [16]; in test [18]; in the test with K562 [21]) was inactive. The outcome (in [2]; in test [5]; in [6]; in the test on MDA-MB-468 [11]; in test [14]; in [17]) was Active. The outcome (in test [19]; with K562 [20]; in the test on PC-3M [22]) was Active. Further, the DC50 in [4] and in test [7] was < 120 nM throughout.
